Tests used:
[1] = biological target: T1, Prostaglandin E2 receptor EP4 subtype (Homo sapiens, UniProt P35408); experiment: Binding affinity to EP4 receptor
[2] = biological target: T1, Prostaglandin E2 receptor EP4 subtype; experiment: Binding affinity to EP4 receptor in presence of 10% HSA
[3] = biological target: T2, Prostaglandin E2 receptor EP1 subtype (Homo sapiens, UniProt P34995); experiment: Binding affinity to EP1 receptor
T2 sequence (P34995 whole entry): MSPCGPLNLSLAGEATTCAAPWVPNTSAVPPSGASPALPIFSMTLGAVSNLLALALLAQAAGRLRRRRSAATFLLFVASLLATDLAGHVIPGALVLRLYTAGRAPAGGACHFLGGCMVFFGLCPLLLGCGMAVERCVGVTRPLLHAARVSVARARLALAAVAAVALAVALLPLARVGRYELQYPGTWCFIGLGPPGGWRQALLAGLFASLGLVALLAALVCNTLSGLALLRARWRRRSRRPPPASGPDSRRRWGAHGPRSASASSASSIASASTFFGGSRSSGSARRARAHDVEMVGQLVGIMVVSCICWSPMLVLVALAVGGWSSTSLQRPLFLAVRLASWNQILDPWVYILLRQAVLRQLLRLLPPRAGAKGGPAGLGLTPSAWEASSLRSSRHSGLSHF

[4] = biological target: Prostaglandin F2-alpha receptor (Homo sapiens, UniProt P43088); experiment: Binding affinity to FP receptor
Prostaglandin F2-alpha receptor, sequence (P43088 whole entry): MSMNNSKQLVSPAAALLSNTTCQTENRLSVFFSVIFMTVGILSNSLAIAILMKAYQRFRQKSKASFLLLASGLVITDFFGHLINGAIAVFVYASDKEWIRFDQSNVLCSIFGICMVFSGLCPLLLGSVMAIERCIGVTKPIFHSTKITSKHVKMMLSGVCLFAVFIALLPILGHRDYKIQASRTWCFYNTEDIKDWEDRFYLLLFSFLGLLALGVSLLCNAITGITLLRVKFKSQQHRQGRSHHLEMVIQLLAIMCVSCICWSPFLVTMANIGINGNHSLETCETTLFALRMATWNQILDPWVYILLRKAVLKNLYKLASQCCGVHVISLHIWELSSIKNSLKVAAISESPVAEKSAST

Thromboxane A2 receptor = biological target: T3, Thromboxane A2 receptor (Homo sapiens, UniProt P21731); experiment: Binding affinity to TP receptor
T3 sequence (P21731 whole entry): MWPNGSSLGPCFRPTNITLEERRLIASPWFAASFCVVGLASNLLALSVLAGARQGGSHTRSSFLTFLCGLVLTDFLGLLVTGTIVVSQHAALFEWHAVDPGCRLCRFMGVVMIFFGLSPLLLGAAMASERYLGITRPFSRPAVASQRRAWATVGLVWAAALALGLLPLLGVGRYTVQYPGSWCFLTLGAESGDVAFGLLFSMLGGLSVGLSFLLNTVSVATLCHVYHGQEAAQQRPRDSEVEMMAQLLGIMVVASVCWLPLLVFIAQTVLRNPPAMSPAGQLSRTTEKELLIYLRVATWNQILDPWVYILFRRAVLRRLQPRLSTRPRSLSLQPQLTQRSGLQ

[5] = Binding affinity to DP receptor
[6] = biological target: T4, Prostaglandin E2 receptor EP3 subtype (Homo sapiens, UniProt P43115); experiment: Binding affinity to EP3 receptor
T4 sequence (P43115 whole entry): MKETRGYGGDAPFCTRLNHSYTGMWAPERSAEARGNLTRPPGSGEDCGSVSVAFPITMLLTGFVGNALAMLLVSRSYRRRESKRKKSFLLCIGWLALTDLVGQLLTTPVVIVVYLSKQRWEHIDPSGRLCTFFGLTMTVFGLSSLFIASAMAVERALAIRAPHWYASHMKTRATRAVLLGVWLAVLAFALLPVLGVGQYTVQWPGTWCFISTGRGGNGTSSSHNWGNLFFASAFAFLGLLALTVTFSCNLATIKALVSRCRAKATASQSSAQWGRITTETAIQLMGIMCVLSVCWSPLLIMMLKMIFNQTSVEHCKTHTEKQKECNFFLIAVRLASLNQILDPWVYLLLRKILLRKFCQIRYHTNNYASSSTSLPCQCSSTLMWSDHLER

[7] = biological target: T5, Prostaglandin D2 receptor 2 (Homo sapiens, UniProt Q9Y5Y4); experiment: Binding affinity to CRTH2 receptor
T5 sequence (Q9Y5Y4 whole entry): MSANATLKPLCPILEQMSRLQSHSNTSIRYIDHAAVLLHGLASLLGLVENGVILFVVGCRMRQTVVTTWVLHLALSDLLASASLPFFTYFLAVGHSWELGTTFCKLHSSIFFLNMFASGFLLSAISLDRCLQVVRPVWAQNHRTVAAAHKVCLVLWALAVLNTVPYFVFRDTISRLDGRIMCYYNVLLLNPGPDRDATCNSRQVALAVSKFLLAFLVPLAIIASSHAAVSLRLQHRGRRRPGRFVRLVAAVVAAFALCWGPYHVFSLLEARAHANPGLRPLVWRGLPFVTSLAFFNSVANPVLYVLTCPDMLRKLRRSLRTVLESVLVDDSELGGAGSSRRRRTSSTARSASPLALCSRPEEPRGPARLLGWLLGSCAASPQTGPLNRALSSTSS

[8] = biological target: T1, Prostaglandin E2 receptor EP4 subtype; experiment: Antagonist activity at human EP4 receptor in HEK293 cells by cell-based functional assay
[9] = biological target: Prostaglandin E2 receptor EP2 subtype (Homo sapiens, UniProt P43116); experiment: Binding affinity to EP2 receptor
Prostaglandin E2 receptor EP2 subtype, sequence (P43116 whole entry): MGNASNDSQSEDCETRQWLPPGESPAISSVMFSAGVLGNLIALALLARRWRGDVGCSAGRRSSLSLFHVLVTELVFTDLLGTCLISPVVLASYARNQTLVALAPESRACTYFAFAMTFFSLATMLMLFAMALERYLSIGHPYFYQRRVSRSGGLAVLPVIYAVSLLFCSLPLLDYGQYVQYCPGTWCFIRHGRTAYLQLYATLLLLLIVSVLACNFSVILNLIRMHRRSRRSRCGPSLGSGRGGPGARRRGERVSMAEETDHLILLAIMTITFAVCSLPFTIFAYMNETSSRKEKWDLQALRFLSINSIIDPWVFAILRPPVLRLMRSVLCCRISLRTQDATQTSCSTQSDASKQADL

Prostacyclin receptor = Prostacyclin receptor (Homo sapiens, UniProt P43119); experiment: Binding affinity to IP receptor
Prostacyclin receptor, sequence (P43119 whole entry): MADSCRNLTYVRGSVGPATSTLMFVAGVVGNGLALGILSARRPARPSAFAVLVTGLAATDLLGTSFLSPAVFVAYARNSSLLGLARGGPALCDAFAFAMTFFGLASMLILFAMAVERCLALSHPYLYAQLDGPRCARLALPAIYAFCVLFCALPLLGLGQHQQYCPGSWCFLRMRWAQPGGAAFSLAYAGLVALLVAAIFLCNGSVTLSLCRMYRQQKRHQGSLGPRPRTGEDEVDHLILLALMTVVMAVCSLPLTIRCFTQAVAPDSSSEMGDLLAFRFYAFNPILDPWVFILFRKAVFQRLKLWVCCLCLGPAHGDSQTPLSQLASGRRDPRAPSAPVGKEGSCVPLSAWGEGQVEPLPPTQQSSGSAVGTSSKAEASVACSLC

T1 sequence (P35408 whole entry): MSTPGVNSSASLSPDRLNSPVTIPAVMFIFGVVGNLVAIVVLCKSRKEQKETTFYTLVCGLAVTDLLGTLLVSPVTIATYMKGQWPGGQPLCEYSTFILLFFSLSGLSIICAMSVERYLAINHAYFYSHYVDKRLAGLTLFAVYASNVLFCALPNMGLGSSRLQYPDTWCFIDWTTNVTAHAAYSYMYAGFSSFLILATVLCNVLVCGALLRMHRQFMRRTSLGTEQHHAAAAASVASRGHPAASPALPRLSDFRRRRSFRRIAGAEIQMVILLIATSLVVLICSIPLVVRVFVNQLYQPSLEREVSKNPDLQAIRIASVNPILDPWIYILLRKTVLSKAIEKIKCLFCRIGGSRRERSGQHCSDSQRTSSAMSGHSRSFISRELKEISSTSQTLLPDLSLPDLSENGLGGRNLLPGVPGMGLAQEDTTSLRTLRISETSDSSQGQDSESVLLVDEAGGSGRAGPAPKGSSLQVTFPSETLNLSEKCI

Compound	Ki [1] [nM]	Ki [2] [nM]	also measured
Cc1cc(C)c2sc(C(=O)N(C)C)c(-c3ccc(CCNC(=O)OC(C)(C)C)cc3)c2c1	68	1990	–
Cc1ccc(S(=O)(=O)NC(=O)NCCc2ccc(-c3c(C(=O)N(C)C)sc4c(Cl)cc(Cl)cc34)cc2)cc1	0.59	17	–
Cc1cc(C)c2sc(C(=O)N(C)C)c(-c3ccc(CCNC(=O)Cc4c(Cl)cccc4Cl)cc3)c2c1	1.6	17	–
Cc1cc(C)c2sc(C(=O)N(C)C)c(-c3ccc(-c4nn[nH]n4)cc3)c2c1	160	2300	–
Cc1ccc(S(=O)(=O)NC(=O)NCCc2ccc(-c3c(C(N)=O)sc4c(C)cc(C)cc34)cc2)cc1	3.8	650	–
Cc1ccc(S(=O)(=O)NC(=O)NCCc2ccc(-c3c(C(=O)N(C)C)sc4c(C)ccc(C)c34)cc2)cc1	0.77	19	–
COC(=O)c1sc2c(C)cc(C)cc2c1-c1ccc(CCNC(=O)NS(=O)(=O)c2ccc(C)cc2)cc1	0.97	39	–
Cc1cc(C)c2sc(C(=O)N(C)C)c(-c3ccc(CCNc4ncccn4)cc3)c2c1	0.98	42	–
Cc1ccc(S(=O)(=O)NC(=O)NCCc2ccc(-c3c(C(=O)N(C)C)sc4c(F)cc(F)cc34)cc2)cc1	0.53	40	–

Now from value to compound, other results behind:

Ki [1] [nM]	Ki [2] [nM]	Compound	also measured
0.55	8.7	Cc1ccc(S(=O)(=O)NC(=O)NCCc2ccc(-c3c(C(=O)N(C)C)sc4c(Cl)cc(C(F)(F)F)cc34)cc2)cc1	–
0.4	2.2	Cc1cc(C)c2sc(C(=O)N(C)C)c(-c3ccc(CCNC(=O)NS(=O)(=O)c4ccc(Cl)cc4)cc3)c2c1	–
0.5	134	CNC(=O)c1sc2c(C)cc(C)cc2c1-c1ccc(CCNC(=O)NS(=O)(=O)c2ccc(C)cc2)cc1	–
2.3	40	Cc1cc(C)c2sc(C(=O)N(C)C)c(-c3ccc(CCNC(=O)Cc4ccccn4)cc3)c2c1	–
3	17	COc1ccccc1C1(C(=O)NCCc2ccc(-c3c(C(=O)N(C)C)sc4c(C)cc(C)cc34)cc2)CC1	–
0.54	1.4	Cc1ccc(S(=O)(=O)NC(=O)NCCc2ccc(-c3c(C(=O)N(C)C)sc4c(C)cc(C)cc34)cc2)cc1	Ki [3]: > 9500 nM; Ki [4]: > 8700 nM; Ki (Thromboxane A2 receptor): 61 nM; Ki [5]: 73 nM; Ki [6]: 530 nM; Ki [7]: > 7230 nM; IC50 [8]: 1.2 nM; Ki [9]: 3330 nM; Ki (Prostacyclin receptor): > 7700 nM
0.2	3.4	COc1ccccc1CC(=O)NCCc1ccc(-c2c(C(=O)N(C)C)sc3c(C)cc(C)cc23)cc1	IC50 [8]: 2.4 nM
0.42	2.7	Cc1cc(C)c2sc(C(=O)N(C)C)c(-c3ccc(CCNC(=O)NS(=O)(=O)c4ccccc4Cl)cc3)c2c1	–
0.41	11	Cc1ccc(S(=O)(=O)NC(=O)NCCc2ccc(-c3c(C(=O)N4CCCC4)sc4c(C)cc(C)cc34)cc2)cc1	–

Reference: ChEMBL document CHEMBL1641502, “The identification of substituted benzothiophene derivatives as PGE(2) subtype 4 receptor antagonists: From acid to non-acid” (Bioorg Med Chem Lett, 2011)
